Data taken from patent US8207209B2, “Methods of inhibiting viral infection” (priority 2007, dated 2012).
Entries after “also recorded” stand apart in the source; their conditions may differ.

Key:
SARS = assay type: cell-based
HIV = HIV infection in MT-4 cells; assay type: cell-based; settings: modest concentrations
Ebola virus [1] = assay: microbe, parasite or virus in culture; assay type: cell-based
Influenza = assay type: cell-based, influenza virus
PRRS virus = assay type: cell-based
Lassa Fever Virus = assay type: cell-based
Marburg virus [2] = assay: organism not typed; assay type: cell-based
[3] = Response of mice to doses of 365 (safety)
Dengue serotypes = assay type: cell-based, Dengue virus
[4] = Serum levels of 365 in BALB/c mice; settings: 5 mg/kg dose
Hepatitis C Virus = assay type: cell-based
PBMC = assay: Cytokine levels in PBMC; settings: 5 uM dose
Bovine Corona virus = assay type: cell-based
Rift Valley Fever Virus = assay type: cell-based
cowpox virus [5] = system: cowpox virus; set-up: species or system mice; settings: mouse, in vivo
Ebola virus [6] = system: Ebola virus; set-up: species or system mice; settings: mouse, in vivo
Caspase 3 = Caspase 3 (Homo sapiens, UniProt P42574); assay type: biochemical
Chain of Caspase 3 (P42574 29-175 limits assumed, species assumed): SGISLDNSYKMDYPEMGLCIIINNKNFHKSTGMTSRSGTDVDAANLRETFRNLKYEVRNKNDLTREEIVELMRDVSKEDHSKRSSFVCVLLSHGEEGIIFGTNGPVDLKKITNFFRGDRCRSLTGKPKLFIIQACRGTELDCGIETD
Chain of Caspase 3 (P42574 176-277 limits assumed, species assumed): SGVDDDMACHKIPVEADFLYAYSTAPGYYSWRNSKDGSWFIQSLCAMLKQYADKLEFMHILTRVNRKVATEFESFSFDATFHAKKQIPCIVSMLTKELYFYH

Marburg virus [7] = system: Marburg virus; set-up: species or system mice; settings: mouse, in vivo
Caspase 1 = Caspase 1 (Homo sapiens, UniProt P29466); assay type: biochemical
Chain of Caspase 1 (P29466 120-297 limits assumed, species assumed): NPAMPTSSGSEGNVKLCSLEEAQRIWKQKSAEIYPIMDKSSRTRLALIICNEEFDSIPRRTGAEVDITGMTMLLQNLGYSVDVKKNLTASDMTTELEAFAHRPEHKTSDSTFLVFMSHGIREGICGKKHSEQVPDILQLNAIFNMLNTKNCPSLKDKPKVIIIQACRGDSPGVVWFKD
Chain of Caspase 1 (P29466 317-404 limits assumed, species assumed): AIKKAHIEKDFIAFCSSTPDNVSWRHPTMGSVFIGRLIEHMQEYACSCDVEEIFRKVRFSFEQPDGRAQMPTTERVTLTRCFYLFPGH

Caspase 8 = Caspase 8 (Homo sapiens, UniProt Q14790); assay type: biochemical
Chain of Caspase 8 (Q14790 217-374 limits assumed, species assumed): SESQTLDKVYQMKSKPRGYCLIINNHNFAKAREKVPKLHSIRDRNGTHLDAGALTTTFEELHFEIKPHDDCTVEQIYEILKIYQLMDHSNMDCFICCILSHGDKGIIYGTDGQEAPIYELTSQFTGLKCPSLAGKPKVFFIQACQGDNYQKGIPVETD
Chain of Caspase 8 (Q14790 385-479 limits assumed, species assumed): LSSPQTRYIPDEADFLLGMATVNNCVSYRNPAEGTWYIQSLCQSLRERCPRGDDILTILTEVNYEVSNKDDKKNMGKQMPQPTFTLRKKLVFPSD

cowpox virus [8] = assay type: cell-based
Caspase 2 = Caspase 2 (Homo sapiens, UniProt P42575); assay type: biochemical
Chain of Caspase 2 (P42575 170-325 limits assumed, species assumed): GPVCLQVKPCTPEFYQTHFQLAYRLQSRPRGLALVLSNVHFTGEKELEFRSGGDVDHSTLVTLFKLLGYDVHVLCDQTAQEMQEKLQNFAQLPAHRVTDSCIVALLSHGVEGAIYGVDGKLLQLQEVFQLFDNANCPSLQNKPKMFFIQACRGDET
Chain of Caspase 2 (P42575 348-452 limits assumed, species assumed): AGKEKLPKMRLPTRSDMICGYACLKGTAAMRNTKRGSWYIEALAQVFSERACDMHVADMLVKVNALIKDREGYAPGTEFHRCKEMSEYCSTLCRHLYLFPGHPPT

West Nile Virus = assay type: cell-based
Caspase 4 = Caspase 4 (Homo sapiens, UniProt P49662); assay: Caspase inhibition; assay type: biochemical
Chain of Caspase 4 (P49662 81-270 limits assumed, species assumed): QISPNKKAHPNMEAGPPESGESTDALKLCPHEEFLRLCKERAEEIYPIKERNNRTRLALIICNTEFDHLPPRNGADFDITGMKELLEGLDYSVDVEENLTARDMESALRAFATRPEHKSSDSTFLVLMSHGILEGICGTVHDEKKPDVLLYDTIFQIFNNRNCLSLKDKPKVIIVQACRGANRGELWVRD
Chain of Caspase 4 (P49662 290-377 limits assumed, species assumed): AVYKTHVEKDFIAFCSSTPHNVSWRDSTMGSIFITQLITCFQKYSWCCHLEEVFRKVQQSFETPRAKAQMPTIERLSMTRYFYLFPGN

Caspase 9 = Caspase 9 (Homo sapiens, UniProt P55211); assay type: biochemical
Chain of Caspase 9 (P55211 1-315 limits assumed, species assumed): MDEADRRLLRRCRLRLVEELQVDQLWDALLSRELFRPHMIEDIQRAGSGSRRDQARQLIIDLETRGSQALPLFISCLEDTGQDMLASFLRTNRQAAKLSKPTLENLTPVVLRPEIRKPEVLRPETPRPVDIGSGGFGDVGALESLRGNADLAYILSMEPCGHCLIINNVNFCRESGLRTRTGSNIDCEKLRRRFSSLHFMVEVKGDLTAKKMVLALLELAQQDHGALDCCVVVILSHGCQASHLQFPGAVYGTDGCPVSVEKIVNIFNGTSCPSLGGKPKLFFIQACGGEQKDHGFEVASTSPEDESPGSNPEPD
Chain of Caspase 9 (P55211 331-416 limits assumed, species assumed): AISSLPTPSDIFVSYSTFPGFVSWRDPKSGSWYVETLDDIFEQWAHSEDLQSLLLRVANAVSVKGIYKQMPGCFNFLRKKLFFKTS

[9] = system: Paramyxoviruses including Parainfluenza and Respiratory Syncitial Virus; assay type: cell-based
Caspase 10 = Caspase 10 (Homo sapiens, UniProt Q92851); assay: Caspase inhibition; assay type: biochemical
Chain of Caspase 10 (Q92851 220-415 limits assumed): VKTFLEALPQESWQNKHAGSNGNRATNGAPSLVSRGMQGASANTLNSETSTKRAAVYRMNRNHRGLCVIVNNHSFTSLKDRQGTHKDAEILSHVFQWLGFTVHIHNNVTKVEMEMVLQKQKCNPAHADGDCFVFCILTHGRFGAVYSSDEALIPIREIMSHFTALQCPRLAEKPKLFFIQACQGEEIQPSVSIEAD
Chain of Caspase 10 (Q92851 416-521 limits assumed): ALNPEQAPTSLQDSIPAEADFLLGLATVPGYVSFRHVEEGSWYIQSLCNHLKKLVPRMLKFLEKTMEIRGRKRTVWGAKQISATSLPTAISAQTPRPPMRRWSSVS

in vivo = settings: mouse, ip, 10 mg/kg
[10] = In vivo safety/toxicity (LD50) study of 723
Hepatitis B virus (HBV) = assay: Hepatitis B virus cell based assay; settings: dose response
[11] = mouse, in vivo
[12] = Serum concentration of 723 in guinea pigs; settings: guinea pig
[13] = mouse, in vivo, ip
wide variety of cells = assay: CC50 cytotoxicity of 723 in a variety of cell types; settings: cell based assays against a wide variety of cells

In the case of `Cc1cc(NCCCN(C)C)c2ccc3c(ccc4c(NCCCN(C)C)cc(C)nc43)c2n1.Cl.Cl.Cl.Cl` [Compound 365, Quino[8,7-h]quinoline-1,7-diamine,N,N′-bis[3-(dimethylamino)propyl]-3,9-dimethyl-tetrahydrochloride], the “inhibition of SARS” value (SARS) is reported as “inhibited”, the “inhibition of HIV” value (HIV) is reported as 100% and the “inhibition of Ebola virus” value (Ebola virus [1]) is reported as 100%. The “effectiveness against Influenza infection” value (Influenza) was “effective”, the EC100 (PRRS virus) was 3.2 µM and the “effectiveness in inhibiting PRRS” value (PRRS virus) was “showed effectiveness”. For the same molecule, the “inhibition of Lassa Fever Virus” value (Lassa Fever Virus) was “suppressed”, the “suppression of Marburg Virus” value (Marburg virus [2]) was “suppressed” and the “dose at which all animals survived” value [3] was “up to 25 mg/kg”. For the same molecule, the weight after administration ([3]; up to 25 mg/kg) was “not significantly impacted”, the “effectiveness against Dengue serotypes” value (Dengue serotypes) was “effective” and the “time course of serum concentration” value [4] was “leaves the serum relatively rapidly”. For the same molecule, the “inhibition of HCV (luciferase signal)” value (Hepatitis C Virus) was “complete inhibition”, the “cytokine levels relative to agent-free vehicle” value (PBMC) was “not substantially different” and the “effectiveness against Bovine Corona virus” value (Bovine Corona virus) was “effective; also recorded: inhibited”. For the same molecule, the EC50 (Rift Valley Fever Virus) was 370 nM, the “inhibition of Rift Valley Fever Virus (zero viral particle release)” value (Rift Valley Fever Virus) was 100% and the survival outcomes (cowpox virus [5]) was “did not ultimately improve survival outcomes”. For the same molecule, the survival times (cowpox virus [5]) was “uniformly extend survival times”.

For `N=C(N)c1ccc(-c2ccc(-c3ccc(C(=N)N)cc3)s2)cc1` [Compound 510, benzenecarboxylmidamide,4,4′-(2,5-thiphenediyl)bis], the “inhibition measured in terms of cell survival” value (Ebola virus [1]) was 100%, the “protection against Ebola virus, therapeutic” value (Ebola virus [6]) was “provided protection” and the “protection against lethal challenge” value (Ebola virus [6]) was 100%. For the same molecule, the “inhibition of Caspase 3” value (Caspase 3) was “selective inhibition”, the “protection, measured in terms of survival” value (Marburg virus [7]) was 100% and the “inhibition of Caspase 1” value (Caspase 1) was “elevated inhibition; also recorded: to some degree”. The “inhibition of Caspase 8” value (Caspase 8) was “elevated inhibition; also recorded: selective inhibition”, the “inhibition of Lassa Fever Virus” value (Lassa Fever Virus) was “effective” and the EC50 (cowpox virus [8]) was ~250 nM. For the same molecule, the “inhibition of Caspase 2” value (Caspase 2) was “elevated inhibition; also recorded: selective inhibition”, the “inhibition of West Nile Virus” value (West Nile Virus) was 100% and the “inhibition measured in terms of cell survival” value (Marburg virus [2]) was 100%. For the same molecule, the “inhibition of Caspase 4” value (Caspase 4) was “not”, the “inhibition of Caspase 9” value (Caspase 9) was “not” and the HCV viral titers (Hepatitis C Virus) was “zero”. The “protection against Paramyxovirus challenge” value [9] was “effective” and the “inhibition of Caspase 10” value (Caspase 10) was “not”.

For `N=C(N)c1ccc2oc(C=Cc3nc4ccc(C(=N)N)cc4[nH]3)cc2c1` [Compound 723, 2-[2-(5-carbamimidoyl-benzofuran-2-yl)-vinyl]-3H-benzoimidazole-5-carboxamidine], the half-life (in vivo) was 2 h, the lethal dose ([10]; administered on day zero) was 200 mg/kg and the “impact of dosing on weight over time” value ([10]; below 200 mg/kg) was “little or no impact”. The “dose at which compound is well tolerated” value ([10]; in vivo) was “up to 100 mg/kg”, the infection inhibition (Ebola virus [1]) was 100% and the EC50 (Ebola virus [1]; Zaire ebolavirus) was ≤ 50 nM. For the same molecule, the “protection on challenged mice” value (Ebola virus [6]) was 90%, the survival (Ebola virus [6]) was 25% and the treated animals survived (Ebola virus [6]) was 100%. For the same molecule, the “effectiveness against Influenza infection” value (Influenza) was “comparatively poorly”, the “protection, measured in terms of survival” value (Marburg virus [7]) was 100% and the “effectiveness in treating HBV (reduction in viral copies)” value (Hepatitis B virus (HBV)) was “effectiveness, at nanomolar levels”. The “effectiveness in inhibiting PRRS” value (PRRS virus) was “showed effectiveness”, the EC50 (Marburg virus [2]) was ≤ 50 nM and the infection inhibition (Marburg virus [2]) was 100%. For the same molecule, the “t1/2 in mammalian models” value [11] was “two-four”, the “effectiveness against Dengue serotypes” value (Dengue serotypes) was “effective” and the half-life [12] was 4 h. The “concentrations in the liver and kidney” value [13] was “high”, the “concentrations in the spleen and the heart” value [13] was “relatively low” and the “protection against Paramyxovirus challenge” value [9] was “effective in conferring a great degree of protection”. The “effectiveness against Bovine Corona virus” value (Bovine Corona virus) was “effective” and the CC50 (wide variety of cells) was “well above safety thresholds”.
